One assay concerns the target T7 RNA polymerase (Escherichia phage T7, UniProt P00573). Conditions: 1 mM substrate, 1 mM NTPs, template DNA containing Ds, 37° C., 3 hours; FIG. 49. The procedure:
More specifically, experimental procedures as shown below were used. […] After reaction at 37° C. for 3 hours, 10 M urea (20 μL) was added to this solution to stop the reaction.

Assay [1] deals with Klenow fragment lacking 3′-5′ exonuclease activity (Escherichia coli, UniProt P00582, D355A/E357A). As to conditions: template DNA (55-mer) containing Ds, 10 μM substrate, 37° C., 5 minutes; FIG. 48. On the procedure: More specifically, experimental procedures as shown below were used. […] The reaction was performed using 200 nM Template-Primer, 100 μM or 200 μM dNTPs (N=A, G, C, T), 10 μM NH2-hx-dPnTP or FAM-hx-dPnTP, and 0.1 U/μl Klenow fragment (GE Health Care) in 50 mM Tris-HCl (pH 7.5), 10 mM MgCl2, 1 mM DTT, 0.05 mg/ml BSA. After reaction at 37° C. for 5 minutes, 10 M urea (20 μl) was added to this solution to stop the reaction. […] Bands of the reaction products were detected with a fluorescence image analyzer (Molecular Imager, Bio-Rad, FAM detection mode).

Assay [2] has as its system Klenow fragment (KF exo+ / KF exo−). As to conditions: FIG. 2e; for primer extension after incorporation of the substrate: dDsTPN opposite template Pa, dATPN opposite template T, Lanes 2 and 14. The procedure:
(§1) [FIG. 2d] FIGS. 2a to 2e show single nucleotide insertion and primer extension experiments with an unnatural base pair system based on Ds-Pa base pairing.
(§2) [FIG. 2e] FIGS. 2a to 2e show single nucleotide insertion and primer extension experiments with an unnatural base pair system based on Ds-Pa base pairing.
(§3) A 5′-^32P-labeled primer (23-mer) and template DNA (35-mer) were annealed into duplex form in 20 mM Tris-HCl (pH 7.5) buffer containing 14 mM MgCl2 and 0.2 mM DTT. The duplex solution (400 nM, 5 μl) was mixed with each 5× dNTP solution (2 μl) on ice, followed by addition of 3 μl enzyme solution containing KF exo^− (1 unit) or KF exo^+ (1 unit) (TAKARA) to start the reaction. After the reaction solution was incubated at 37° C. for 3 or 5 minutes, a dye solution (10 μl) containing 89 mM Tris-borate, 2 mM EDTA, 10 M urea and 0.05% BPB was added to stop the reaction. […] The products on the gel were analyzed with a bio-imaging analyzer (model BAS2500, Fuji).

Assay [3] deals with T1, Klenow fragment lacking exonuclease activity (KF exo−) (Escherichia coli, UniProt P00582, D355A/E357A).
T1 construct: enzyme solution of the Klenow fragment lacking exonuclease activity (KF exo^−, Amersham USB); purchased Amersham USB
The assay is classed as biochemical, E. coli. As to conditions: for Efficiency (Vmax/KM) / Km / Vmax: 37° C. The procedure: The single nucleotide insertion experiment was performed as described in documents (Non-patent Documents 30-32). A primer (20-mer) labeled with 6-carboxylfluorescein at the 5′-end was annealed with template DNA (35-mer) by heating at 95° C. and slow cooling to 4° C. in 100 mM Tris-HCl (pH 7.5) buffer containing 20 mM MgCl2, 2 mM DTT and 0.1 mg/ml bovine serum albumin. The primer-template duplex solution (10 μM, 5 μl) was mixed with 2 μl enzyme solution of the Klenow fragment lacking exonuclease activity (KF exo^−, Amersham USB). After the mixture was incubated for 2 minutes, each dNTP solution (3 μl) was added to this solution to start the reaction at 37° C. The amount of the enzyme used (5-50 nM), the reaction time (1-35 minutes) and the gradient concentration of each dNTP (0.3-1500 μM) were adjusted to ensure conditions giving 25% or less products. The reaction was stopped with 10 μl stop solution (95% formamide and 20 mM EDTA), and the mixture was immediately heated at 75° C. for 3 minutes. The diluted products were analyzed in an automated ABI377 DNA sequencer equipped with GeneScan software (version 3.0) (Non-patent Document 32). The relative velocity (v0) was calculated by dividing the extent of reaction by the reaction time, and then normalized to the enzyme concentration (20 nM) for the various enzyme concentrations used. Kinetic parameters (KM and Vmax) were obtained from Hanes-Woolf plots of [dNTP]/v0 against [dNTP].
Each parameter was averaged from 3 to 8 data sets.

Assay [4] deals with Klenow fragment (KF exo+ / KF exo−) (Escherichia coli, UniProt P00582). Conditions: dPaTP and natural substrates in the presence of the named substrate (0.5 or 1 molar equivalent of dPaTP); FIG. 2d. On the procedure: as §1, §2, §3

Read-outs that look alike come from different tables or passages of the source.

Here are results for seven compounds from US8030478B2, “Method for nucleic acid replication and novel artificial base pairs” (priority 2005, dated 2011).

As usually defined, the Km is the substrate concentration at which the rate is half of its maximum.

T1 sequence (P00582 324-928 D355A/E357A): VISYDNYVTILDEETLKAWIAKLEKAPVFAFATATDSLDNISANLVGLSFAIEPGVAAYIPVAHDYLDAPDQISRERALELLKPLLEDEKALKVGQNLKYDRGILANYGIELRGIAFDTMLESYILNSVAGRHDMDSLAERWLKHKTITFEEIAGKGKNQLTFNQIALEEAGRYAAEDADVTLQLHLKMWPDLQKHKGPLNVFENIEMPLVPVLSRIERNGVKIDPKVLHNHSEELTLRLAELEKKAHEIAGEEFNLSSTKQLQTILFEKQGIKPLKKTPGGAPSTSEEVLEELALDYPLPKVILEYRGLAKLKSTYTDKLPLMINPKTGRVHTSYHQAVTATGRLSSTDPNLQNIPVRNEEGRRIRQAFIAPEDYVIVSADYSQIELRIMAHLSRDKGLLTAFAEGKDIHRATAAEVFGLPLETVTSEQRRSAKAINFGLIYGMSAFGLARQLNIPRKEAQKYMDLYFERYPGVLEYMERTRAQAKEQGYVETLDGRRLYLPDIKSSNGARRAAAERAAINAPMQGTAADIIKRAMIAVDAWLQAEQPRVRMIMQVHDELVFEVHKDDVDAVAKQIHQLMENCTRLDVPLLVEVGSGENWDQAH
Chain of T7 RNA polymerase (P00573 whole entry): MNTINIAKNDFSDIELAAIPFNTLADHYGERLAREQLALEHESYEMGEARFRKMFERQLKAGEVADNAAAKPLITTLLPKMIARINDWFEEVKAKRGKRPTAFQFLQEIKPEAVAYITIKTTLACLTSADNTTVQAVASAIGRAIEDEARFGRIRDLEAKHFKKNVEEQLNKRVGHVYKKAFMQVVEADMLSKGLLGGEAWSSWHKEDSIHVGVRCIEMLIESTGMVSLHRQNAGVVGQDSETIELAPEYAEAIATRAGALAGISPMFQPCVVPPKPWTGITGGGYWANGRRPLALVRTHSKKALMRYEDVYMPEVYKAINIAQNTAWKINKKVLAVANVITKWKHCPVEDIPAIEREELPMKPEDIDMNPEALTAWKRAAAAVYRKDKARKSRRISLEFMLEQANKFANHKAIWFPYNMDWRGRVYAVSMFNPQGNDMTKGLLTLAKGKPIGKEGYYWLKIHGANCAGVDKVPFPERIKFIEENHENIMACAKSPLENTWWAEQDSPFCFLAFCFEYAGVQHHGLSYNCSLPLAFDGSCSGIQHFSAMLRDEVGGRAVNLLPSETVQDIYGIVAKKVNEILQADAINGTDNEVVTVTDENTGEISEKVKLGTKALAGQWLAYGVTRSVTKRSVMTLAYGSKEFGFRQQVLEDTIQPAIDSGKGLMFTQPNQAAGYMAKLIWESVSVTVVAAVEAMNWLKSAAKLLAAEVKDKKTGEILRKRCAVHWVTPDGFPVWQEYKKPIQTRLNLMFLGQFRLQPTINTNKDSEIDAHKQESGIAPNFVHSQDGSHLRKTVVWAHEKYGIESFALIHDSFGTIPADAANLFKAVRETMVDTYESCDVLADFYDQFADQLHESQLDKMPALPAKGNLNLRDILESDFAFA
Chain of Klenow fragment (KF exo+ / KF exo−) (Escherichia coli, UniProt P00582) (P00582 324-928): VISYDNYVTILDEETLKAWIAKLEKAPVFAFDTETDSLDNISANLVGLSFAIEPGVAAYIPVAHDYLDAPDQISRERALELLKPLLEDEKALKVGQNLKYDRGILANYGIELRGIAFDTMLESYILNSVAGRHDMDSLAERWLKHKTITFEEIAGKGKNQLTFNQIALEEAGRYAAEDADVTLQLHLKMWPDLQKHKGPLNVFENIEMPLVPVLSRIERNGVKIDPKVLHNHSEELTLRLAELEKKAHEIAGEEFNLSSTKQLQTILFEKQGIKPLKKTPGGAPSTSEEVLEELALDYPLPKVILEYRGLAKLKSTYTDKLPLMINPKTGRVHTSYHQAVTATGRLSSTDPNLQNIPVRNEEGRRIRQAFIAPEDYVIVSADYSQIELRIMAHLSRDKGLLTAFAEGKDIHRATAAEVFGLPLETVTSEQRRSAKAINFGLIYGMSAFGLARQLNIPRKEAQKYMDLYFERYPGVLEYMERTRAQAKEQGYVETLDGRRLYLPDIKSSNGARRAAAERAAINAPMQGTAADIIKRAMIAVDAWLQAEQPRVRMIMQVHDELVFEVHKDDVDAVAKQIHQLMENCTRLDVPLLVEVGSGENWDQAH
Chain of Klenow fragment lacking 3′-5′ exonuclease activity (P00582 324-928 D355A/E357A): as the sequence (P00582 324-928 D355A/E357A) above

For `O=Cc1cc(C#CCNC(=O)CCCCCNC(=O)c2ccc3c(c2)C(=O)OC32c3ccc(O)cc3Oc3cc(O)ccc32)cn1[C@@H]1O[C@H](COP(=O)(O)OP(=O)(O)OP(=O)(O)O)[C@@H](O)[C@H]1O` [FAM-hx-PaTP, 1-(β-D-Ribofuranosyl)-4-[3-(6-(fluorescein-5-carboxamido)hexanamido)-1-propynyl]pyrrole-2-carbaldehyde 5′-triphosphate], the “transcription efficiency compared to control with natural substrates alone” value on T7 RNA polymerase was found to be 14%.

Take `O=C(CCCCCNC(=O)c1ccc2c(c1)C(=O)OC21c2ccc(O)cc2Oc2cc(O)ccc21)NCC#Cc1cc([N+](=O)[O-])n([C@H]2C[C@H](O)[C@@H](COP(=O)(O)OP(=O)(O)OP(=O)(O)O)O2)c1` [FAM-hx-dPnTP, 1-(2-Deoxy-β-D-ribofuranosyl)-4-[3-[6-(fluorescein-5-carboxamido)hexanamido]-1-propynyl]-2-nitropyrrole 5′-triphosphate]: the “incorporation into DNA through primer extension” value in assay [1] is reported as “incorporated into DNA opposite Ds in the template DNA”.

For the compound `NCCCCCC(=O)NCC#Cc1cc([N+](=O)[O-])n([C@H]2C[C@H](O)[C@@H](COP(=O)(O)OP(=O)(O)OP(=O)(O)O)O2)c1` [NH2-hx-dPnTP], the “incorporation into DNA through primer extension” value in assay [1] is “incorporated into DNA opposite Ds in the template DNA”.

As to `CN(C)c1ccc2c(c1)Oc1cc(N(C)C)ccc1C21OC(=O)c2cc(C(=O)NCCCCCC(=O)NCC#Cc3cc(C=O)n([C@@H]4O[C@H](COP(=O)(O)OP(=O)(O)OP(=O)(O)O)[C@@H](O)[C@H]4O)c3)ccc21` [TAMRA-hx-PaTP, 1-(β-D-Ribofuranosyl)-4-[3-(6-(tetramethylrhodamine-5-carboxamido)hexanamido)-1-propynyl]pyrrole-2-carbaldehyde 5′-triphosphate], the “transcription efficiency compared to control with natural substrates alone” value at T7 RNA polymerase came to 10%.

For the compound `Nc1ncnc2c1ncn2[C@H]1C[C@H](O)[C@@H](COP(=O)(O)OP(=O)(O)OP(N)(=O)O)O1` [dATPN, 6-Amino-9-(2-deoxy-β-D-ribofuranosyl)purine 5′-γ-amidotriphosphate], the “extension reaction after misincorporation opposite template Pa, compared to dATP” value in assay [2] (Lanes 4 and 5) is reported as “significantly reduced efficiency”. Moreover, the “primer extension after incorporation of the substrate” value in assay [2] is given as “proceeded efficiently”. Besides, the “Efficiency (Vmax/KM)” value is recorded as 3.4 × 10^2 % min^−1M^−1 in assay [3] (template (N) = C, temp35N-2); 3.2 × 10^2 % min^−1M^−1 in assay [3] (template (N) = Ds, temp35N-1); 1.8 × 10^3 % min^−1M^−1 in assay [3] (template (N) = Pa, temp35N-2); 3.0 × 10^3 % min^−1M^−1 in assay [3] (template (N) = Pa′, temp35N-2); 2.5 × 10^5 % min^−1M^−1 in assay [3] (template (N) = T, temp35N-2). For the same compound, the Km in assay [3] (template (N) = C, temp35N-2) was 590 µM; in assay [3] (template (N) = Ds, temp35N-1), 150 µM; in assay [3] (template (N) = Pa, temp35N-2) it was 1200 µM; in assay [3] (template (N) = Pa′, temp35N-2), 800 µM; in assay [3] (template (N) = T, temp35N-2), 13 µM. Besides, the Vmax in assay [3] (template (N) = C, temp35N-2) was 0.20 % min^−1; in assay [3] (template (N) = Ds, temp35N-1), 0.048 % min^−1; in assay [3] (template (N) = Pa, temp35N-2), 2.2 % min^−1; in assay [3] (template (N) = Pa′, temp35N-2), 2.4 % min^−1; in assay [3] (template (N) = T, temp35N-2), 3.2 % min^−1.

As to `O=P(O)(O)OP(=O)(O)OP(=O)(O)OC[C@H]1O[C@@H](n2cnc3c(-c4cccs4)ccnc32)C[C@@H]1O` [dDsTP, 7-(2-Thienyl)-3-(2-deoxy-β-ribofuranosyl)-3H-imidazo[4,5-b]pyridine 5′-triphosphate], in assay [4], the “primer extension with KF exo+ on Ds-containing template” value was “inhibited”. Besides, the “Efficiency (Vmax/KM)” value in assay [3] (template (N) = A, temp35N-2) is recorded as 3.6 × 10^4 % min^−1M^−1; in assay [3] (template (N) = C, temp35N-2) it was 2.8 × 10^4 % min^−1M^−1; in assay [3] (template (N) = Ds, temp35N-1) it was 2.0 × 10^5 % min^−1M^−1; in assay [3] (template (N) = G, temp35N-2), 4.1 × 10^4 % min^−1M^−1; in assay [3] (template (N) = Pa, temp35N-2), 1.1 × 10^4 % min^−1M^−1; in assay [3] (template (N) = Pa′, temp35N-2), 8.8 × 10^5 % min^−1M^−1. The “Efficiency (Vmax/KM)” value in assay [3] (template (N) = T, temp35N-2) is given as 8.7 × 10^4 % min^−1M^−1. Besides, the Km in assay [3] (template (N) = A, temp35N-2) is 33 µM; in assay [3] (template (N) = C, temp35N-2) it was 47 µM; in assay [3] (template (N) = Ds, temp35N-1), 8 µM; in assay [3] (template (N) = G, temp35N-2), 37 µM; in assay [3] (template (N) = Pa, temp35N-2), 26 µM; in assay [3] (template (N) = Pa′, temp35N-2), 24 µM. The Km in assay [3] (template (N) = T, temp35N-2) turned out to be 45 µM. Besides, the Vmax came to 1.2 % min^−1 in assay [3] (template (N) = A, temp35N-2); 1.3 % min^−1 in assay [3] (template (N) = C, temp35N-2); 1.6 % min^−1 in assay [3] (template (N) = Ds, temp35N-1); 1.5 % min^−1 in assay [3] (template (N) = G, temp35N-2); 28 % min^−1 in assay [3] (template (N) = Pa, temp35N-2); 21 % min^−1 in assay [3] (template (N) = Pa′, temp35N-2). In addition, the Vmax in assay [3] (template (N) = T, temp35N-2) is 3.9 % min^−1.

For the compound `NP(=O)(O)OP(=O)(O)OP(=O)(O)OC[C@H]1O[C@@H](n2cnc3c(-c4cccs4)ccnc32)C[C@@H]1O` [dDsTPN, 7-(2-Thienyl)-3-(2-deoxy-β-D-ribofuranosyl)-3H-imidazo[4,5-b]pyridine 5′-γ-amidotriphosphate], the “primer extension after incorporation of the substrate” value in assay [2] is recorded as “proceeded efficiently”. In addition, the “primer extension with KF exo+ on Ds-containing template” value in assay [4] is “proceeded without being inhibited”. In assay [3] (KF exo−, template Pa), the “incorporation efficiency opposite template Pa relative to that of dATPN opposite template Pa” value came to 37 fold. Moreover, the “Efficiency (Vmax/KM)” value in assay [3] (template (N) = A, temp35N-2) is given as 1.9 × 10^3 % min^−1M^−1; in assay [3] (template (N) = C, temp35N-2), 1.5 × 10^3 % min^−1M^−1; in assay [3] (template (N) = Ds, temp35N-1), 9.9 × 10^3 % min^−1M^−1; in assay [3] (template (N) = G, temp35N-2), 1.9 × 10^3 % min^−1M^−1; in assay [3] (template (N) = Pa, temp35N-2) it was 6.7 × 10^4 % min^−1M^−1; in assay [3] (template (N) = Pa′, temp35N-2), 5.7 × 10^4 % min^−1M^−1. Besides, the “Efficiency (Vmax/KM)” value in assay [3] (template (N) = T, temp35N-2) is listed as 3.5 × 10^3 % min^−1M^−1. In addition, the Km in assay [3] (template (N) = A, temp35N-2) was 270 µM; in assay [3] (template (N) = C, temp35N-2) it was 440 µM; in assay [3] (template (N) = Ds, temp35N-1), 79 µM; in assay [3] (template (N) = G, temp35N-2), 300 µM; in assay [3] (template (N) = Pa, temp35N-2), 180 µM; in assay [3] (template (N) = Pa′, temp35N-2) it was 230 µM. Also, the Km in assay [3] (template (N) = T, temp35N-2) is 480 µM. Moreover, the Vmax in assay [3] (template (N) = A, temp35N-2) was found to be 0.52 % min^−1; in assay [3] (template (N) = C, temp35N-2) it was 0.64 % min^−1; in assay [3] (template (N) = Ds, temp35N-1), 0.78 % min^−1; in assay [3] (template (N) = G, temp35N-2), 0.58 % min^−1; in assay [3] (template (N) = Pa, temp35N-2), 12 % min^−1; in assay [3] (template (N) = Pa′, temp35N-2) it was 13 % min^−1. Also, the Vmax in assay [3] (template (N) = T, temp35N-2) came to 1.7 % min^−1.
